Measurements reported in ChEMBL document CHEMBL1139487, “Discovery of corticotropin releasing factor 2 receptor selective sauvagine analogues for treatment of skeletal muscle atrophy” (J Med Chem, 2005).

Legend:
[1] = biological target: T1, Corticotropin-releasing factor receptor 1 (Mus musculus, UniProt P35347); experiment: In vitro effective concentration for mouse corticotropin releasing factor 1 receptor
T1 sequence (P35347 whole entry): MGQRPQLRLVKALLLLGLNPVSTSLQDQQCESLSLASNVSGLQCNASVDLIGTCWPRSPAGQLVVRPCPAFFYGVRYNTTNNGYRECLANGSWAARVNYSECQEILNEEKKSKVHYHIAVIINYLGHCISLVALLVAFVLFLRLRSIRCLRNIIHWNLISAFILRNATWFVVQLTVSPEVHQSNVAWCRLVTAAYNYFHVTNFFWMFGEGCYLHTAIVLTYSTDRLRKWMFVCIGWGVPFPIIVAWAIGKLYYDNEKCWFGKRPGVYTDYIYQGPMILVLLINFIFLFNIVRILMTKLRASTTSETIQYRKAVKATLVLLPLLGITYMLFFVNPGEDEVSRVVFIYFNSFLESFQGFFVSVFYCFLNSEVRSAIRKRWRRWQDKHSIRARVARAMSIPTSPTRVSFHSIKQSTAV

[2] = biological target: Corticotropin-releasing factor receptor 2 (Mus musculus, UniProt Q60748); experiment: In vitro effective concentration for mouse corticotropin releasing factor 2 receptor
Sequence of Corticotropin-releasing factor receptor 2 (Q60748 whole entry): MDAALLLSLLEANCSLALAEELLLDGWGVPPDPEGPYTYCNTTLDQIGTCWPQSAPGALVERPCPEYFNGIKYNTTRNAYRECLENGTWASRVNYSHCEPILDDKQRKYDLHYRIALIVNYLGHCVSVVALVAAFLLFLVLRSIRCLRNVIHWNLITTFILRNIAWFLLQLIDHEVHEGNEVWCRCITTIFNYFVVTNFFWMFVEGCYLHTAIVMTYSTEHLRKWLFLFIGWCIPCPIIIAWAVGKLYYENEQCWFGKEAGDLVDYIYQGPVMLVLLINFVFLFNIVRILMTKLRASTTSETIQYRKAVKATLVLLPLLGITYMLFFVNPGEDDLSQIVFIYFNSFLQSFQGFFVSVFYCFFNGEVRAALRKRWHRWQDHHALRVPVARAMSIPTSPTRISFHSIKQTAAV

EC50 [1] [nM] | EC50 [2] [nM] | Structure (SMILES)
63.6 | 4.1 | CC[C@H](C)[C@H](NC(=O)[C@@H](NC(=O)[C@H](CC(=O)O)NC(=O)[C@H](CC(C)C)NC(=O)[C@H](CC(C)C)NC(=O)[C@H](CC(C)C)NC(=O)[C@H](CCCNC(=N)N)NC(=O)[C@H](CC(N)=O)NC(=O)[C@H](CC(N)=O)NC(=O)[C@H](C)NC(=O)[C@H](C)NC(=O)[C@H](CCC(N)=O)NC(=O)[C@H](CCC(N)=O)NC(=O)[C@H](CCCCN)NC(=O)[C@H](CCC(=O)O)NC(=O)[C@H](CCCCN)NC(=O)[C@H](CCC(=O)O)NC(=O)[C@H](CCC(N)=O)NC(=O)[C@H](CCCCN)NC(=O)[C@H](CCC(=O)O)NC(=O)[C@@H](NC(=O)[C@H](CCC(=O)O)NC(=O)[C@@H](NC(=O)[C@H](CCSC)NC(=O)[C@H](CCCCN)NC(=O)[C@H](CCCNC(=N)N)NC(=O)[C@H](CC(C)C)NC(=O)[C@H](CC(C)C)NC(=O)[C@H](Cc1ccccc1)NC(=O)[C@H](Cc1ccc(O)cc1)NC(=O)[C@@H]1CCCN1C(=O)[C@H](CC(C)C)NC(=O)[C@H](CC(=O)O)NC(=O)[C@@H](NC(=O)[C@H](CO)NC(=O)[C@@H](NC(=O)[C@@H]1CCCN1C(=O)[C@@H]1CCCN1C(=O)CNC(=O)[C@@H]1CCC(=O)N1)[C@@H](C)CC)[C@@H](C)CC)[C@@H](C)CC)[C@@H](C)CC)[C@@H](C)O)C(=O)O
162 | 7.4 | CC[C@H](C)[C@H](NC(=O)[C@@H](NC(=O)[C@H](CC(=O)O)NC(=O)[C@H](CC(C)C)NC(=O)[C@H](CC(C)C)NC(=O)[C@H](CC(C)C)NC(=O)[C@H](CCCNC(=N)N)NC(=O)[C@H](CC(N)=O)NC(=O)[C@H](CC(N)=O)NC(=O)[C@H](C)NC(=O)[C@H](C)NC(=O)[C@H](CCC(N)=O)NC(=O)[C@H](CCC(N)=O)NC(=O)[C@H](CCCCN)NC(=O)[C@H](CCC(=O)O)NC(=O)[C@H](CCCCN)NC(=O)[C@H](CCC(=O)O)NC(=O)[C@H](CCC(N)=O)NC(=O)[C@H](CCCCN)NC(=O)[C@H](CCC(=O)O)NC(=O)[C@@H](NC(=O)[C@H](CCC(=O)O)NC(=O)[C@@H](NC(=O)[C@H](CCSC)NC(=O)[C@H](CCCCN)NC(=O)[C@H](CCCNC(=N)N)NC(=O)[C@H](CC(C)C)NC(=O)[C@H](CC(C)C)NC(=O)[C@H](CC(C)C)NC(=O)[C@H](CC(C)C)NC(=O)[C@@H]1CCCN1C(=O)[C@H](CC(C)C)NC(=O)[C@H](CC(=O)O)NC(=O)[C@@H](NC(=O)[C@H](CO)NC(=O)[C@@H](NC(=O)[C@@H]1CCCN1C(=O)[C@@H]1CCCN1C(=O)CNC(=O)[C@@H]1CCC(=O)N1)[C@@H](C)CC)[C@@H](C)CC)[C@@H](C)CC)[C@@H](C)CC)[C@@H](C)O)C(=O)O
404 | 8.6 | CC[C@H](C)[C@H](NC(=O)[C@@H](NC(=O)[C@H](CC(=O)O)NC(=O)[C@H](CC(C)C)NC(=O)[C@H](CC(C)C)NC(=O)[C@H](CC(C)C)NC(=O)[C@H](CCCNC(=N)N)NC(=O)[C@H](CC(N)=O)NC(=O)[C@H](CC(N)=O)NC(=O)[C@H](C)NC(=O)[C@H](C)NC(=O)[C@H](CCC(N)=O)NC(=O)[C@H](CCC(N)=O)NC(=O)[C@H](CCCCN)NC(=O)[C@H](CCC(=O)O)NC(=O)[C@H](CCCCN)NC(=O)[C@H](CCC(=O)O)NC(=O)[C@H](CCC(N)=O)NC(=O)[C@H](CCCCN)NC(=O)[C@H](CCC(=O)O)NC(=O)[C@@H](NC(=O)[C@H](CCC(=O)O)NC(=O)[C@@H](NC(=O)[C@H](CCSC)NC(=O)[C@H](CCCCN)NC(=O)[C@H](CCCNC(=N)N)NC(=O)[C@H](CC(C)C)NC(=O)[C@H](CC(C)C)NC(=O)[C@H](CCC(N)=O)NC(=O)[C@H](Cc1ccc(O)cc1)NC(=O)[C@@H]1CCCN1C(=O)[C@H](CC(C)C)NC(=O)[C@H](CC(=O)O)NC(=O)[C@@H](NC(=O)[C@H](CO)NC(=O)[C@@H](NC(=O)[C@@H]1CCCN1C(=O)[C@@H]1CCCN1C(=O)CNC(=O)[C@@H]1CCC(=O)N1)[C@@H](C)CC)[C@@H](C)CC)[C@@H](C)CC)[C@@H](C)CC)[C@@H](C)O)C(=O)O
96 | 10.9 | CC[C@H](C)[C@H](NC(=O)[C@@H](NC(=O)[C@H](CC(=O)O)NC(=O)[C@H](CC(C)C)NC(=O)[C@H](CC(C)C)NC(=O)[C@H](CC(C)C)NC(=O)[C@H](CCCNC(=N)N)NC(=O)[C@H](CC(N)=O)NC(=O)[C@H](CC(N)=O)NC(=O)[C@H](C)NC(=O)[C@H](C)NC(=O)[C@H](CCC(N)=O)NC(=O)[C@H](CCC(N)=O)NC(=O)[C@H](CCCCN)NC(=O)[C@H](CCC(=O)O)NC(=O)[C@H](CCCCN)NC(=O)[C@H](CCC(=O)O)NC(=O)[C@H](CCC(N)=O)NC(=O)[C@H](CCCCN)NC(=O)[C@H](CCC(=O)O)NC(=O)[C@@H](NC(=O)[C@H](CCC(=O)O)NC(=O)[C@@H](NC(=O)[C@H](CCSC)NC(=O)[C@H](CCCCN)NC(=O)[C@H](CCCNC(=N)N)NC(=O)[C@H](CC(C)C)NC(=O)[C@H](CC(C)C)NC(=O)[C@H](CCC(=O)O)NC(=O)[C@H](CC(C)C)NC(=O)[C@@H]1CCCN1C(=O)[C@H](CC(C)C)NC(=O)[C@H](CC(=O)O)NC(=O)[C@@H](NC(=O)[C@H](CO)NC(=O)[C@@H](NC(=O)[C@@H]1CCCN1C(=O)[C@@H]1CCCN1C(=O)CNC(=O)[C@@H]1CCC(=O)N1)[C@@H](C)CC)[C@@H](C)CC)[C@@H](C)CC)[C@@H](C)CC)[C@@H](C)O)C(=O)O
265 | 5.5 | CC[C@H](C)[C@H](NC(=O)[C@@H](NC(=O)[C@H](CC(=O)O)NC(=O)[C@H](CC(C)C)NC(=O)[C@H](CC(C)C)NC(=O)[C@H](CC(C)C)NC(=O)[C@H](CCCNC(=N)N)NC(=O)[C@H](CC(N)=O)NC(=O)[C@H](CC(N)=O)NC(=O)[C@H](C)NC(=O)[C@H](C)NC(=O)[C@H](CCC(N)=O)NC(=O)[C@H](CCC(N)=O)NC(=O)[C@H](CCCCN)NC(=O)[C@H](CCC(=O)O)NC(=O)[C@H](CCCCN)NC(=O)[C@H](CCC(=O)O)NC(=O)[C@H](CCC(N)=O)NC(=O)[C@H](CCCCN)NC(=O)[C@H](CCC(=O)O)NC(=O)[C@@H](NC(=O)[C@H](CCC(=O)O)NC(=O)[C@@H](NC(=O)[C@H](CCSC)NC(=O)[C@H](CCCCN)NC(=O)[C@H](CCCNC(=N)N)NC(=O)[C@H](CC(C)C)NC(=O)[C@H](CC(C)C)NC(=O)[C@@H](NC(=O)[C@H](CC(C)C)NC(=O)[C@@H]1CCCN1C(=O)[C@H](CC(C)C)NC(=O)[C@H](CC(=O)O)NC(=O)[C@@H](NC(=O)[C@H](CO)NC(=O)[C@@H](NC(=O)[C@@H]1CCCN1C(=O)[C@@H]1CCCN1C(=O)CNC(=O)[C@@H]1CCC(=O)N1)[C@@H](C)CC)[C@@H](C)CC)C(C)C)[C@@H](C)CC)[C@@H](C)CC)[C@@H](C)O)C(=O)O
423 | 6.5 | CC[C@H](C)[C@H](NC(=O)[C@@H](NC(=O)[C@H](CC(=O)O)NC(=O)[C@H](CC(C)C)NC(=O)[C@H](CC(C)C)NC(=O)[C@H](CC(C)C)NC(=O)[C@H](CCCNC(=N)N)NC(=O)[C@H](CC(N)=O)NC(=O)[C@H](CC(N)=O)NC(=O)[C@H](C)NC(=O)[C@H](C)NC(=O)[C@H](CCC(N)=O)NC(=O)[C@H](CCC(N)=O)NC(=O)[C@H](CCCCN)NC(=O)[C@H](CCC(=O)O)NC(=O)[C@H](CCCCN)NC(=O)[C@H](CCC(=O)O)NC(=O)[C@H](CCC(N)=O)NC(=O)[C@H](CCCCN)NC(=O)[C@H](CCC(=O)O)NC(=O)[C@@H](NC(=O)[C@H](CCC(=O)O)NC(=O)[C@@H](NC(=O)[C@H](CCSC)NC(=O)[C@H](CCCCN)NC(=O)[C@H](CCCNC(=N)N)NC(=O)[C@H](CC(C)C)NC(=O)[C@H](CC(C)C)NC(=O)[C@H](CCC(N)=O)NC(=O)[C@H](CC(C)C)NC(=O)[C@@H]1CCCN1C(=O)[C@H](CC(C)C)NC(=O)[C@H](CC(=O)O)NC(=O)[C@@H](NC(=O)[C@H](CO)NC(=O)[C@@H](NC(=O)[C@@H]1CCCN1C(=O)[C@@H]1CCCN1C(=O)CNC(=O)[C@@H]1CCC(=O)N1)[C@@H](C)CC)[C@@H](C)CC)[C@@H](C)CC)[C@@H](C)CC)[C@@H](C)O)C(=O)O
85 | 5.9 | CC[C@H](C)[C@H](NC(=O)[C@@H](NC(=O)[C@H](CC(=O)O)NC(=O)[C@H](CC(C)C)NC(=O)[C@H](CC(C)C)NC(=O)[C@H](CC(C)C)NC(=O)[C@H](CCCNC(=N)N)NC(=O)[C@H](CC(N)=O)NC(=O)[C@H](CC(N)=O)NC(=O)[C@H](C)NC(=O)[C@H](C)NC(=O)[C@H](CCC(N)=O)NC(=O)[C@H](CCC(N)=O)NC(=O)[C@H](CCCCN)NC(=O)[C@H](CCC(=O)O)NC(=O)[C@H](CCCCN)NC(=O)[C@H](CCC(=O)O)NC(=O)[C@H](CCC(N)=O)NC(=O)[C@H](CCCCN)NC(=O)[C@H](CCC(=O)O)NC(=O)[C@@H](NC(=O)[C@H](CCC(=O)O)NC(=O)[C@@H](NC(=O)[C@H](CCSC)NC(=O)[C@H](CCCCN)NC(=O)[C@H](CCCNC(=N)N)NC(=O)[C@H](CC(C)C)NC(=O)[C@H](CC(C)C)NC(=O)[C@@H](NC(=O)[C@H](Cc1ccccc1)NC(=O)[C@@H]1CCCN1C(=O)[C@H](CC(C)C)NC(=O)[C@H](CC(=O)O)NC(=O)[C@@H](NC(=O)[C@H](CO)NC(=O)[C@@H](NC(=O)[C@@H]1CCCN1C(=O)[C@@H]1CCCN1C(=O)CNC(=O)[C@@H]1CCC(=O)N1)[C@@H](C)CC)[C@@H](C)CC)C(C)C)[C@@H](C)CC)[C@@H](C)CC)[C@@H](C)O)C(=O)O
